Reference: patent US4309425A (priority 1980, dated 1982)
Where two headings read alike, the source gives them in different places.

What was measured:
[1] = system: Puccinia graminis var. tritici; assay: whole plant or invertebrate; format: in vivo; conditions: 192 h, read-out: % control wheat rust in preventive test
adult houseflies = adult houseflies spray test; format: in vivo, housefly; conditions: Musca domestica; 1% acetone solutions, 24 hours
Text: Twenty adult houseflies were confined in each of several cylindrical stainless steel cages (7.5 cm D×4 cm high) with wire screens of the ends. These were sprayed with 1% acetone solutions of the indicated compounds.

Erisyphe cichoracearum = assay: cucumber powdery mildew curative test; format: in vivo; conditions: Cucumis sativus, 144 h, sprayed day after inoculation, additional 6 days
Text: Cucumber plants are inoculated with a spore suspension of the fungus Erisyphe cichoracearum and in a growth room overnight. The following day, the plants are sprayed to the point of run-off with a suspension prepared by dissolving compounds of this invention in acetone in an amount equal to 6% of the final volume and then suspended at a concentration of 20 ppm in purified water containing 25 ppm of the surfactant Alkanol® XC (sodium alkyl naphthalene sulfonate). Plants are returned to the growth room for an additional 6 days when disease ratings are then made. […] Phytotoxicity in the form of foliar burn or growth reduction was observed on some of the plants in association with disease control.

[2] = system: Puccinia graminis var. tritici; assay: whole plant or invertebrate; format: in vivo; conditions: 192 h, read-out: % control wheat rust in residual wash-off test
[3] = system: Eggs of the beet armyworm (Spodoptera exigua); assay: beet armyworm egg (ovicidal) test, % eggs failing to hatch; format: in vivo; conditions: 72 h, 200 ppm in acetone, three days, read-out: % Control (% eggs failing to hatch)
Description: Eggs of the beet armyworm (Spodoptera exigua), laid on cellophane discs each containing 50-75 eggs, were placed in petri dishes and lightly sprayed with 1% concentrations of the indicated compounds in acetone solution. Three days later, percent control (% eggs failing to hatch) was determined.
Eggs of the beet armyworm (Spodoptera exigua), laid on cellophane discs each containing 50-75 eggs, were placed in petri dishes and lightly sprayed with 200 ppm concentration of the indicated compounds in acetone solution. Three days later, percent control (% eggs failing to hatch) was determined.

Erysiphe cichoracearum [4] = assay: cucumber powdery mildew photostability test; format: in vivo; conditions: Golovinomyces cichoracearum, 168 h, xenon arc 3500 foot candles 16 hours, 7 days
Description: (§1) Compounds of this invention are dissolved in acetone in an amount equal to 6% of the final volume and then suspended at a concentration of 20 ppm in purified water containing 25 ppm of the surfactant Alkanol® XC (sodium alkyl naphthalene sulfonate). This suspension is sprayed to the point of run-off in cucumber seedlings. When the foliage is dry, the plants are exposed to 3500 foot candles of light from a xenon arc source for a period of 16 hours. This light source approximates the spectrum of natural sunlight, and is used to assess photostability of the compounds of this invention on plant foliage. The following day, the plants are inoculated with a spore suspension of the fungus Erysiphe cichoracearum and incubated in a growth room for 7 days. Disease ratings are then made.

[5] = system: Puccinia graminis var. tritici; assay: whole plant or invertebrate; format: in vivo; conditions: 192 h, read-out: % control wheat rust in a photostability test
Venturia inaequalis [6] = assay: apple scab residual wash-off test; format: in vivo; conditions: 1/2 inch simulated rainfall, 10-12 days
Description: (§2) Compounds of this invention are dissolved in acetone in an amount equal to 6% of the final volume and then suspended at a concentration of 20 ppm in purified water containing 25 ppm of the surfactant Alkanol® XC (sodium alkyl naphthalene sulfonate). This suspension is sprayed to the point of run-off on apple seedlings. The following day, 1/2 inch of simulated rainfall is applied to the foliage of the plants. When the foliage is dry, the plants are inoculated with a spore suspension of the fungus Venturia inaequalis and incubated in a growth room for 10-12 days. Disease ratings are then made. […] Phytotoxicity in the form of foliar burn was observed on the plants in association with disease control.

Erysiphe cichoracearum [7] = assay: cucumber powdery mildew preventive test; format: in vivo; conditions: Golovinomyces cichoracearum, 168 h, 7 days
Description: Compounds of this invention are dissolved in acetone in an amount equal to 6% of the final volume and then suspended at a concentration of 20 ppm in purified water containing 25 ppm of the surfactant Alkanol® XC (sodium alkyl naphthalene sulfonate). This suspension is sprayed to the point of run-off on cucumber seedlings. The following day, the plants are inoculated with a spore suspension of the fungus Erysiphe cichoracearum and incubated in a growth room for 7 days. Disease ratings are then made. […] Phytotoxicity in the form of foliar burn or growth reduction was observed on some of the plants in association with disease control.

Phytophthora infestans [8] = assay: whole plant or invertebrate; format: in vivo; conditions: in Solanum lycopersicum, 96 h, read-out: % control tomato late blight in a photostability test
[9] = system: red-legged grasshoppers (Melanoplus femurrubrum); assay: red-legged grasshoppers spray test; format: in vivo; conditions: 10 ppm in acetone, 48 hours
Description: Five red-legged grasshoppers (Melanoplus femurrubrum) were confined in each of several cylindrical stainless steel cages (7.5 cm D×4 cm high) with wire screens at the end. These were sprayed with 10 ppm concentration of the indicated compounds in acetone solution. Percent mortality after 48 hours is recorded below.

Erysiphe cichoracearum [10] = assay: cucumber powdery mildew residual wash-off test; format: in vivo; conditions: Golovinomyces cichoracearum, 168 h, 1/2 inch simulated rainfall, 7 days
Description: Compounds of this invention are dissolved in acetone in an amount equal to 6% of the final volume and then suspended at a concentration of 20 ppm in purified water containing 25 ppm of the surfactant Alkanol® XC (sodium alkyl naphthalene sulfonate). This suspension is sprayed to the point of run-off on cucumber seedlings. The following day, 1/2 inch of simulated rainfall is applied to the foliage of the plants. When the foliage is dry, the plants are inoculated with a spore suspension on the fungus Erysiphe cichoracearum and incubated in a growth room for 7 days. Disease ratings are then made.

Venturia inaequalis [11] = assay: apple scab photostability test; format: in vivo; conditions: xenon arc 3500 foot candles 16 hours, 10-12 days
Description: as §1, with “on apple” for “in cucumber”, “Venturia inaequalis” for “Erysiphe cichoracearum”, “10-12” for “7”, “made. […] Phytotoxicity in the form of foliar burn was observed on some of the plants in association with disease control.” for “made.”

Sclerotinia sclerotiorum = assay: white mold on carrot sections dip test; conditions: 100 ppm dip, 20° C., six days
Description: Surface-sterilized carrot sections were dipped two minutes in a 100 ppm solution of the compounds of this invention. Additional sections were dipped in a check solution which contained 500 ppm Alkanol® XC (sodium alkyl naphthalene sulfonate). After inoculation by placing a mycelial plug of Sclerotinia sclerotiorum on each carrot section, the test was held at 20° C. for six days.
The untreated carrot sections were completely invaded with the mycelial growth of white mold fungus, but the treated sections had little or no growth by this disease causing organism.

[12] = system: brown dog ticks (Rhipicephalus sanguineus); assay: brown dog ticks spray test; format: in vivo; conditions: 48 h, 12.5 ppm in acetone, forty eight hours
Description: Four-ounce wide mouth jars, each containing 10 brown dog ticks (Rhipicephalus sanguineus), were sprayed with 12.5 ppm concentration of the indicated compounds in acetone solution. The ticks were confined with caps which were also sprayed. Forty eight hours later, percent mortality was determined.

[13] = system: adult cotton boll weevils (Anthonomus grandis); assay: adult cotton boll weevils spray test; format: in vivo; conditions: 1% acetone solution, 24 hours
Description: Five adult cotton boll weevils (Anthonomus grandis) were confined in a 4-oz. wide mouth jar. These were sprayed with a 1% acetone solution of the indicated compounds. Percent mortality after 24 hours is set forth below.

Venturia inaequalis [14] = assay: apple scab preventive test; format: in vivo; conditions: 10-12 days
Description: as §2, with “following day, the plants” for “following day, 1/2 inch of simulated rainfall is applied to the foliage of the plants. When the foliage is dry, the plants”, “observed on some of the plants” for “observed on the plants”

Phytophthora infestans [15] = assay: whole plant or invertebrate; format: in vivo; conditions: in Solanum lycopersicum, 96 h, read-out: % control tomato late blight in a residual wash-off test
[16] = system: organo-phosphorous resistant two-spotted spider mites; assay: organo-phosphorous resistant two-spotted spider mites on bean plants, spray, mortality after two days; conditions: Tetranychus urticae, 48 h, read-out: % Mortality (2 days)
two-spotted mites = two-spotted mites on bean plants, spray, mortality after two days; format: in vivo; conditions: Tetranychus urticae, 48 h, read-out: % Mortality (2 days)
Description: Mortality was evaluated two days after spraying.
Mortality after two days is set forth below.

Rhizopus = assay: Rhizopus-corn meal mixture overspray test; conditions: 168 h, read-out: % control Rhizopus
Description: Compounds of this invention were dissolved in acetone in an amount equal to 6% of final volume and then suspended at a concentration of 100 ppm in purified water containing 500 ppm of the surfactant Alkanol® XC (sodium alkyl naphthalene sulfonate). This solution was oversprayed on a Rhizopus-corn meal mixture in 6 cm aluminum cups. The sprayed plates were placed in a closed plastic bag, stored at 20° C. for 7 days, and then rated.
The untreated cups were completely covered with Rhizopus mycelial growth, but the treated cups were mostly free of growth by this disease-causing organism.

CCCCN(SN(c1cc(C(F)(F)F)ccc1Cl)c1c([N+](=O)[O-])cc([N+](=O)[O-])cc1C(F)(F)F)S(=O)(=O)c1ccccc1
pest or weed control at 20 ppm [1]: 100% | mortality at 1 % (adult houseflies): 100% | pest or weed control at 20 ppm (Erisyphe cichoracearum): 50% | pest or weed control at 20 ppm [2]: 97% | mortality at 200 ppm [3]: 100% | pest or weed control at 20 ppm (Erysiphe cichoracearum [4]): 0% | pest or weed control at 20 ppm [5]: 90% | pest or weed control at 20 ppm (Venturia inaequalis [6]): 100% | pest or weed control at 20 ppm (Erysiphe cichoracearum [7]): 100% | pest or weed control at 20 ppm (Phytophthora infestans [8]): 90% | mortality at 10 ppm [9]: 100% | pest or weed control at 20 ppm (Erysiphe cichoracearum [10]): 98% | pest or weed control at 20 ppm (Venturia inaequalis [11]): 0% | % control White Mold (Sclerotinia sclerotiorum): 86% | mortality at 12.5 ppm [12]: 100% | mortality at 1 % [13]: 100% | pest or weed control at 20 ppm (Venturia inaequalis [14]): 100% | pest or weed control at 20 ppm (Phytophthora infestans [15]): 100%

Cc1ccc(S(=O)(=O)N(SN(c2cc(C(F)(F)F)ccc2Cl)c2c([N+](=O)[O-])cc([N+](=O)[O-])cc2C(F)(F)F)C(C)C)cc1
pest or weed control at 20 ppm [1]: 100% | mortality at 0.0005 % [16]: 83% | mortality at 0.001 % [16]: 99% | mortality at 0.002 % [16]: 99% | pest or weed control at 20 ppm (Erisyphe cichoracearum): 90% | pest or weed control at 20 ppm [2]: 97% | pest or weed control at 20 ppm (Erysiphe cichoracearum [4]): 40% | pest or weed control at 20 ppm [5]: 80% | mortality at 0.00025 % (two-spotted mites; spray concentration .00025%): 100% | mortality at 0.0005 % (two-spotted mites; spray concentration .0005%): 100% | mortality at 0.001 % (two-spotted mites; spray concentration .001%): 100% | pest or weed control at 20 ppm (Venturia inaequalis [6]): 100% | inhibition of growth at 100 ppm (Rhizopus): 100% | pest or weed control at 20 ppm (Erysiphe cichoracearum [7]): 100% | pest or weed control at 20 ppm (Phytophthora infestans [8]): 90% | pest or weed control at 20 ppm (Erysiphe cichoracearum [10]): 99% | pest or weed control at 20 ppm (Venturia inaequalis [11]): 0% | % control White Mold (Sclerotinia sclerotiorum): 100% | pest or weed control at 20 ppm (Venturia inaequalis [14]): 100% | pest or weed control at 20 ppm (Phytophthora infestans [15]): 100%
